Results reported in patent US8568801B2, “Solid oral sensorial products including stain inhibitor” (Philip Morris USA Inc., priority 2010, dated 2013).

How the values were obtained:
[1] = Hydroxyapatite powder washed in phosphate, then soaked in Burley tobacco extract; conditions: compared with unwashed HAP powder and with HAP powder first washed in dibasic sodium phosphate; FIG. 11
[2] = Hydroxyapatite powder soaked in tea extract; conditions: 5.0 g tea and 50 mg sodium hexametaphosphate in 100 mL water, room temperature, about 1 hour; FIG. 12
Protocol: A second extract was formed by soaking 5.0 g of tea in 100 mL water at room temperature for about 1 hour. Each extract was then filtered through #2 Watman filter paper. Approximately 152 mg of hydroxyapatite powder was placed in the bottom of each of two centrifuge vials. 14 mL of the first extract was placed in one vial and 14 mL of the second extract was placed in the second vial.

[3] = Cow's teeth staining by extract of tea pouches, simulating 6 months of use; conditions: extract of pouches with 5.0 g tea and 50 mg sodium hexametaphosphate; 5 soaks of 7 minutes at about 100° F. with brushing; FIG. 9
Protocol: (§1) To determine the effectiveness of the phosphate containing stain inhibitor on oral sensorial products including tea, a test was performed to simulate 6 months of use of the oral sensorial products. About 187.5 mL artificial saliva and 75 pouches containing 5.0 g tea were placed in a bag in a water bath at 100° F. for 3 minutes. The artificial saliva was formed as part of a 1000 mL batch including 4.20 g sodium bicarbonate, 0.50 g sodium chloride and 0.20 g potassium carbonate. The bag was removed and rolled for about 2 minutes and then returned to the water bath for 10 minutes. This process was repeated four more times (five total). The pouches were then removed from the bag and 50 mL of the extract was placed in a 250 mL crystallization beaker. Cow's teeth were then immersed in the 50 mL of extract, the beaker was covered with polypropylene wrap, and the teeth were soaked for 7 minutes at about 100° F. The teeth were removed from the beaker and rinsed with reverse osmosis water for about 5 seconds. The front enamel of each tooth was brushed with 1 g of Crest® Cavity Protection toothpaste for 30 seconds, rinsed with reverse osmosis water and covered to prevent exposure to light. This regime was repeated 4 additional times (5 total). A second extract was made using pouches including 5.0 g tea and 50 mg sodium hexametaphosphate. […]

[4] = Hydroxyapatite powder soaked in Burley tobacco extract with various amounts of sodium hexametaphosphate; conditions: FIG. 13
Protocol: To determine the effect of various amount of sodium hexametaphosphate, 5.0 grams of Burley tobacco was soaked in 100 mL water at room temperature for 1 hour to form a first extract. A second extract was formed by soaking 5.0 grams of Burley tobacco and […] sodium hexametaphosphate in 100 mL water at room temperature for 1 hour. A third extract was formed by soaking 5.0 grams of Burley tobacco and 0.252 g sodium hexametaphosphate in 100 mL water at room temperature for 1 hour. A fourth extract was formed by soaking 5.0 grams of Burley tobacco and 0.047 g sodium hexametaphosphate in 100 mL water at room temperature for 1 hour. Each extract was then filtered through #2 Watman filter paper. Approximately […] of hydroxyapatite powder was placed in the bottom of each of four centrifuge vials. 14 mL of the first extract was placed in the first vial, 14 mL of the second extract was placed in the second vial, 14 mL of the third extract was placed in the third vial and 14 mL of the fourth extract was placed in the fourth vial. The powder in each vial was allowed to soak for about 1 hour with agitation and then the powder was decanted, washed in distilled water at least three times and decanted each time.

[5] = Cow's teeth staining by extract of Burley tobacco pouches; conditions: as printed, the tobacco-only tooth is the darker one; inhibitor extract from 50 mg sodium hexametaphosphate and 5.0 g Burley tobacco; 5 soaks; FIG. 10
Protocol: as §1, with “inhibitor on solid oral sensorial” for “inhibitor on oral sensorial”, “products including tobacco, 187.5 mL” for “products including tea, a test was performed to simulate 6 months of use of the oral sensorial products. About 187.5 mL”, “5.0 g Burley tobacco were placed” for “5.0 g tea were placed”, “of the Burley tobacco extract was” for “of the extract was”, “5.0 g Burley tobacco and 50” for “5.0 g tea and 50”

O=P1([O-])OP(=O)([O-])OP(=O)([O-])OP(=O)([O-])OP(=O)([O-])OP(=O)([O-])O1.[Na+].[Na+].[Na+].[Na+].[Na+].[Na+] [sodium hexametaphosphate]
color of HAP powder first washed in the phosphate and then soaked in Burley tobacco extract [1]: visibly whiter
color of HAP powder soaked in extract of tea and sodium hexametaphosphate compared with tea alone [2]: visibly whiter
color of cow's teeth exposed to sodium hexametaphosphate and tea compared with teeth exposed to tea alone [3]: noticeably lighter in color
color of powders soaked in extracts with larger amounts of sodium hexametaphosphate compared with smaller amounts ([4]; 25.080 g, 0.252 g and 0.047 g sodium hexametaphosphate with 5.0 g Burley tobacco in 100 mL water): lighter in color
color of powder soaked in Burley tobacco extract alone compared with powders soaked in extracts including sodium hexametaphosphate ([4]; as printed, the tobacco-only powder is the darker one, 5.0 g Burley tobacco with 25.080 g, 0.252 g or 0.047 g sodium hexametaphosphate in 100 mL water): visibly darker
color of cow's tooth soaked in Burley tobacco extract alone compared with tooth soaked in extract with sodium hexametaphosphate [5]: visibly darker
